Results: patent publication US20110143992A1, “Methods and Compositions Related to GHS-R Antagonists” (priority 2006, published 2011)
[ ]: non-standard residue; d: D form.

Assays:
[1] = tested on: glioma cell; conditions: cited from earlier work
[2] = in vivo; cited from earlier work
[3] = tested on: HIV; conditions: cited from earlier work
[4] = tested on: primary brain tumors; conditions: via ERK dependent pathways; cited from earlier work
[5] = tested on: breast and pancreatic carcinoma; conditions: cited from earlier work
[6] = molecular target: T1, CCR5 (Homo sapiens, UniProt P51681); test: MIP-1β induced calcium release in CEM-R5 cells (Fura-2AM); assay type: cell-based; parameters: ATCC; host or cells: CEM-R5 cells; conditions: CEMR5 cells, MIP-1β 100 ng/ml
[7] = molecular target: T2, CXCR4 (Homo sapiens, UniProt P61073); test: SDF-1 induced intracellular calcium mobilization (Fura-2AM) in primary human T cells; assay type: cell-based; parameters: endogenous in cells; host or cells: primary human T cells purified from donor PBMCs
Method: Intracellular calcium mobilization. Measurement of intracellular calcium release in response to ghrelin and SDF-1 was performed as described previously (Dixit et al. J. Clin. Invest. 114, 57-66 (2004)). Cells were incubated in PBS containing […] Fura-2 acetoxymethyl ester (Molecular Probes) for 30 minutes at room temperature. The cells were subsequently washed and then resuspended at 1×10^6/ml in PBS. A total of 2 ml of the cell suspension was placed in a continuously stirring cuvette at room temperature in an LS50B spectrophotometer (Perkin-Elmer, Wellesley, Mass., USA). Labeled T cells were treated with SDF-1 (100 ng/ml) and along with DLG (Sigma-Aldrich) at various concentrations. Fluorescence was monitored at λex1=340 nm, λex2=380 nm, and λcm=510 nm. The data are presented as the relative ratio of fluorescence excited at 340 and 380 nm.

[8] = tested on: U118 astrocytoma cells; test: SDF-1 induced ERK phosphorylation, Western blot, U118 cells; assay type: cell-based, human; conditions: DLG pretreatment 30 min
Method: (§1) Western blot analysis. Control and treated cells were lysed in RIPA buffer supplemented with protease and phosphatase inhibitor cocktail (Sigma-Aldrich, St. Louis, Mo.) and protein concentrations of cell lysates were determined by Bradford assay. Protein lysates (30 μg) were diluted with sample buffer and separated on 4-20% Tris HCl SDS-polyacrylamide gels (Biorad, Hercules, Calif.) and electrophoretically transferred to nitrocellulose membranes (Schleicher & Schuell). The blots were then incubated with rabbit anti-phospho-P42 and pERK (Cell Signaling, Beverly, Mass.). Immune complexes were visualized by incubation with either an anti-rabbit or an anti-mouse HRP-conjugated secondary antibody (Amersham, Piscataway, N.J.). The immunoreactive band was visualized by enhanced chemiluminescence (Perkin-Elmer).

[9] = molecular target: T3, CCR7 (Homo sapiens, UniProt P32248); test: MIP-3β induced calcium release in human T cells; assay type: cell-based
T3 construct: MIP-3β induced calcium release (A) and sphingosine 1 phosphate (B) is not affected by DLG treatment in human T cells; endogenous in cells; host or cells: human T cells
T3 sequence (P32248 25-378): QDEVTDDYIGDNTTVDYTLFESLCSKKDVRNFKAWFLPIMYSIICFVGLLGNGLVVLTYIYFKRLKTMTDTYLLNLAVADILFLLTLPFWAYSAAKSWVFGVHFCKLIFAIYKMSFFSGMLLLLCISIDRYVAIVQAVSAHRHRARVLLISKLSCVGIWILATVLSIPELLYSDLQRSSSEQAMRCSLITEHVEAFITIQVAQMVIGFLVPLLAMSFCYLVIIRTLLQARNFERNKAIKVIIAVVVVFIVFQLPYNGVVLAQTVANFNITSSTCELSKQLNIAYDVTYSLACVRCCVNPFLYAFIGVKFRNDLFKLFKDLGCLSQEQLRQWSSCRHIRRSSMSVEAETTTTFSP

[10] = tested on: HIV1 (CXCR4, S1 strain); test: HIV-1 infectivity of CEM-GFP indicator cells (GFP fluorescence); assay type: cell-based; conditions: 1 ug/ml pretreatment 30 min, 90 min viral incubation
Method: Neomycin-resistant indicator CEM-GFP cells were used to monitor the infections with HIV1 (CXCR4, S1 strain). Viral entry into CEM cells via CXCR4 results in generation of green fluorescent protein signal. CEM cells (1 million/ml) were pretreated with DLG (1 ug/ml) and SDF-1 (1 ug/ml) for 30 min followed by 90 min viral incubation.

[11] = tested on: CEMR5 human T cell lymphoma cell; test: Transwell chemotaxis assay, SDF-1 induced migration of CEMR5 cells; assay type: cell-based; conditions: SDF-1 100 ng/ml
Method: (§2) Chemotaxis Assay. Fluorescence-based Transwell chemotaxis assays were performed to assess cell migration. Primary human T cells, CEMR5 and HH cells were labeled with 10 μg/ml Hoechst 33342 (Molecular Probes) in cRPMI for 30 min at 37° C. The cells were then resuspended in RPMI with 1% FBS to a concentration of 1×10^7/ml and 100 ul of Hoechst labeled cells (10^6 cells) were added into the top chamber of the transwells. Cells were treated with DLG in the upper chamber and RPMI (0.6 ml) containing 1% FBS was added to the bottom wells of the 24-well plate with 100 ng/ml of SDF-1α. Transwell chambers with 5 μm pore filters (Corning CoStar, Acton, Mass.) were then placed into the wells. Cells (1×10^6 in 100 μl) were then added to the chambers. After 2 h, the migrated cells in the bottom wells were transferred to triplicate wells of a 96-well plate in 150 μl volumes. Hoechst fluorescence was measured on a Fluoroskan Ascent FL fluorescence plate reader (Thermo Labsystems, Franklin, Mass.) at λex=355 nm, and λem=460 nm. Results are expressed as migration index calculated by subtracting the fluorescence intensity of media alone and comparing the values to the fluorescence intensity (relative number) of cells migrated into the bottom chamber in media alone, which is normalized to a value of 1. Fluorescence values were within the linear range of a standard dilution curve.

[12] = tested on: Primary human T cells; test: Transwell chemotaxis assay, SDF-1 induced migration of primary human T cells; assay type: cell-based; conditions: SDF-1 100 ng/ml, 2 h
Method: as §2

[13] = obese mice, cited from earlier work
[14] = cited from earlier work
[15] = tested on: SW1008 astrocytoma cells; test: SDF-1 induced ERK phosphorylation, Western blot, SW1008 cells; assay type: cell-based, human; conditions: DLG pretreatment 30 min
Method: as §1

[16] = tested on: EDG receptor; test: Sphingosine 1 phosphate induced calcium release in human T cells; assay type: cell-based
[17] = molecular target: T1, CCR5; test: flow cytometry, whole cell ligand binding on T-SUP1 cells; competitor biotinylated MIP-1β + avidin-FITC; DLG 10^-2 M for 15 minutes by the legend of FIG. 5
[18] = molecular target: T2, CXCR4; test: flow cytometry, whole cell ligand binding on T-SUP1 cells; competitor biotinylated SDF-1 + avidin-FITC; DLG 10^-2 M for 15 minutes by the legend of FIG. 5

T1 sequence (P51681 whole entry): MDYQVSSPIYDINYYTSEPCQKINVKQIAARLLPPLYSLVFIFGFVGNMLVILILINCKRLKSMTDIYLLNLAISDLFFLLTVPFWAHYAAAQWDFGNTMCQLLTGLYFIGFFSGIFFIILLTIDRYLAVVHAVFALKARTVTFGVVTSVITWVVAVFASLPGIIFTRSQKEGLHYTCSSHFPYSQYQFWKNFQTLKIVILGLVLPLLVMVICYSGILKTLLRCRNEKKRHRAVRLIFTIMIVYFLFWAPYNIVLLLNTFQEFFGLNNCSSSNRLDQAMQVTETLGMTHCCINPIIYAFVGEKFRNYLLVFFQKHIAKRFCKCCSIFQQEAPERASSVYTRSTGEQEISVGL
T2 sequence (P61073 whole entry): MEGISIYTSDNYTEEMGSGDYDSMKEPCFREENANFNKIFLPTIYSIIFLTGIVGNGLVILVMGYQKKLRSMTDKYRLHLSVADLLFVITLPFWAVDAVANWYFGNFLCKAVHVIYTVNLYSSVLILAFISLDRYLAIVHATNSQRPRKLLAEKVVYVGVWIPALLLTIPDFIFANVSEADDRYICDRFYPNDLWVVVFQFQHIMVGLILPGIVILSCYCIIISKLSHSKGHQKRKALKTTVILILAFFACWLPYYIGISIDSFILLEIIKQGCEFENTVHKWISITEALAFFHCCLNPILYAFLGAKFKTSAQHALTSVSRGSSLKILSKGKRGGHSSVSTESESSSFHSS

Molecule: c1cc(CN2CCCNCCNCCCNCC2)ccc1CN1CCCNCCNCCCNCC1 [AMD3100]
- glioma cell invasion [1]: blocks glioma cell invasion
- allergy and collagen induced arthritis [2]: decreases allergy and collagen induced arthritis
- CXCR4 mediated HIV viral entry [3]: successfully utilized to block CXCR4 mediated HIV viral entry
- intracranial growth of primary brain tumors [4]: effectively inhibit intracranial growth of primary brain tumors
- metastasis of breast and pancreatic carcinoma [5]: blocks

Molecule: H-His-D-Trp-D-Lys-Trp-D-Phe-Lys-NH2 (H-H[dW][dK]W[dF]K-NH2; SMILES NCCCC[C@H](NC(=O)[C@@H](Cc1ccccc1)NC(=O)[C@H](Cc1c[nH]c2ccccc12)NC(=O)[C@@H](CCCCN)NC(=O)[C@@H](Cc1c[nH]c2ccccc12)NC(=O)[C@@H](N)Cc1c[nH]cn1)C(N)=O) [DLG, GHS-R antagonist peptide, obtained from Sigma-Aldrich]
- inhibition of calcium release post MIP-1β-CCR5 interaction [6]: dose dependent inhibition of calcium release
- inhibition of SDF-1-induced calcium flux ([7]; primary human T cells, SDF-1 100 ng/ml, DLG at various concentrations): markedly inhibited in a dose dependent fashion
- calcium flux by the substance alone ([7]; unstimulated primary human T cells): did not flux calcium by itself
- effect on SDF-1 induced ERK/P42 phosphorylation [8]: abrogated the SDF-1 induced signaling
- effect on MIP-3β mediated calcium flux [9]: did not affect
- HIV infectivity (GFP fluorescence intensity) compared to untreated cells [10]: substantial reduction in HIV infectivity
- inhibition of SDF-1 induced migration [11]: inhibited the migration
- inhibition of SDF-1 induced T cell migration [12]: marked dose dependent inhibition
- body weight ([13]; repeated administration): reduce body weight in obese mice
- glycaemic control and insulin resistance ([13]; repeated administration): improve their glycaemic control and insulin resistance
- muscle mass [13]: without affecting the muscle mass
- size of abdominal fat pads [13]: reduced the size of abdominal fat pads
- food intake ([14]; fed state when circulating ghrelin levels are low): does not affect food intake in the fed state
- adverse side effects ([14]; in vivo): without any adverse side effects
- effect on SDF-1 induced ERK/P42 phosphorylation [15]: abrogated the SDF-1 induced signaling
- effect on sphingosine 1 phosphate mediated calcium flux [16]: did not affect

B1: D-[Lys3]GHRP-6 (H-His-D-Trp-D-Lys-Trp-D-Phe-Lys-NH2) (peptide)
peptide: H-H[dW][dK]W[dF]K-NH2
SMILES: NCCCC[C@H](NC(=O)[C@@H](Cc1ccccc1)NC(=O)[C@H](Cc1c[nH]c2ccccc12)NC(=O)[C@@H](CCCCN)NC(=O)[C@@H](Cc1c[nH]c2ccccc12)NC(=O)[C@@H](N)Cc1c[nH]cn1)C(N)=O
- percent reduction of maximal binding [17]: 50 to 60%
- percent reduction of maximal binding [18]: 50 to 60%
